Where two headings read alike, the source gives them in different places.
How the values were obtained:
[1] = tested on: Panc-1 human cell line; assay: Cytotoxicity on Panc-1, xCELLigence SP, IC50 after 24 h, 48 h, 72 h and 96 h (Example 22)
[2] = tested on: Panc-1 (pancreas, carcinoma) cells; assay: Cell viability assay, CellTiter-Glo (Example 21); assay type: cell-based, human; details: 72 h treatment
How it was run: (§1)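 Seeding density per line: Panc-1 750, FaDu 1000, Detroit 562 and MDA-MB-453 1500 cells/well. Viability after treatment read by CellTiter-Glo luminescence; dose-response curves fitted by four-parameter variable-slope non-linear regression.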

[3] = tested on: LNCaP (prostate, carcinoma) cells; assay: Cell viability assay, CellTiter-Glo (Example 21); assay type: cell-based, human; details: 72 h
How it was run: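 LNCaP prostate carcinoma cell viability was assessed with the CellTiter-Glo® luminescent assay (Promega), following the manufacturer's instructions. Cells were seeded at 1500 cells/well into flat-bottomed white 96 well plates, treated, and then luminescence was read on a BioTek Synergy 2 Multi-Mode Reader. Dose-response curves were fitted in GraphPad Prism 8.4.2 by four-parameter variable-slope non-linear regression.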

[4] = tested on: FaDu (pharynx, squamous cell carcinoma) cells; assay: Cell viability assay, CellTiter-Glo (Example 21); assay type: cell-based, human; details: 72 h treatment
How it was run: as §1

[5] = tested on: PC-3 (prostate, adenocarcinoma) cells; assay: Cell viability assay, CellTiter-Glo (Example 21); assay type: cell-based, human; details: 72 h treatment
How it was run: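 PC-3 prostate adenocarcinoma cells were seeded at 1000 cells/well in flat-bottomed white 96 well plates and treated with compounds. Viability was then determined with the CellTiter-Glo® luminescent assay (Promega) following the manufacturer's instructions, with luminescence read on a BioTek Synergy 2 Multi-Mode Reader.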

[6] = tested on: MDA-MB-453 (breast, carcinoma) cells; assay: Cell viability assay, CellTiter-Glo (Example 21); assay type: cell-based, human; details: 72 h treatment
How it was run: as §1

[7] = tested on: Detroit 562 (pharynx, carcinoma) cells; assay: Cell viability assay, CellTiter-Glo (Example 21); assay type: cell-based, human; details: 72 h treatment
How it was run: as §1

[8] = tested on: EBC-1 (lung, squamous cell carcinoma) cells; assay: Cell viability assay, CellTiter-Glo (Example 21); assay type: cell-based, human; details: 72 h treatment
How it was run: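 EBC-1 lung squamous cell carcinoma cells were seeded at 1000 cells/well in flat-bottomed white 96 well plates. After compound treatment, viability was measured with the CellTiter-Glo luminescent assay following the manufacturer's instructions, and luminescence was read on a BioTek Synergy 2 Multi-Mode microplate reader.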

[9] = tested on: Capan-1 (pancreas, adenocarcinoma) cells; assay: Cell viability assay, CellTiter-Glo (Example 21); assay type: cell-based, human; details: 72 h treatment
How it was run: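 Capan-1 cells were seeded at 1000 cells/well in flat-bottomed white 96 well plates (BRANDplates®), with density optimized for cell size and growth rate. Following compound treatment, viability was measured with the CellTiter-Glo® luminescent assay (Promega) per the manufacturer's instructions, reading luminescence on a BioTek Synergy 2 Multi-Mode Reader.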

[10] = tested on: Detroit 562 cell line; assay: Additional in vitro IC50 tests (Table 3); assay type: cell-based; details: Homo sapiens
How it was run: (§2)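 Cells at 1000/well, viability by CellTiter-Glo luminescence after compound treatment, as % of untreated control. IC50 from variable-slope log(inhibitor) vs response nonlinear regression.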

[11] = tested on: EBC-1 cell line; assay: Additional in vitro IC50 tests (Table 3); assay type: cell-based; details: Homo sapiens
How it was run: as §2

[12] = tested on: H2228 cell line; assay: Additional in vitro IC50 tests (Table 3); assay type: cell-based; details: Homo sapiens, NCI-H2228
How it was run: as §2

[13] = tested on: SCC-25 cell line; assay: Additional in vitro IC50 tests (Table 3); assay type: cell-based; details: Homo sapiens
How it was run: as §2

[14] = tested on: Fadu cell line; assay: Additional in vitro IC50 tests (Table 3); assay type: cell-based; details: Homo sapiens
How it was run: as §2

[15] = tested on: Panc1 pancreatic cancer cell line; assay: CellTiter-Glo IC50 (Example 19); assay type: cell-based; details: Homo sapiens, PANC-1, 72 h
How it was run: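 Following treatment of 1000-cell/well cultures at 37° C, 5% CO2, CellTiter-Glo replaced the medium and luminescence was recorded. Data normalised to untreated controls; IC50 by variable-slope regression.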

[16] = tested on: EBC-1 lung cancer cell line; assay: High-throughput screening, CellTiter-Glo cell viability assay at 100 nM; assay type: cell-based, human; details: Homo sapiens, EBC-1, HTS, compounds at 100 nM, 72 h, read-out: cytotoxicity expressed in IC50, EBC-1 (results of High throughput screening)
[17] = tested on: H2228 lung cancer cell line; assay: as above; assay type: cell-based, human; details: Homo sapiens, NCI-H2228, HTS, compounds at 100 nM, 72 h, read-out: cytotoxicity expressed in IC50, H2228 (results of High throughput screening)
[18] = PANC-1, 72 h, read-out: IC50 (72 h) [nM]
[19] = PANC-1, 96 h, read-out: IC50 (96 h) [nM]

SMILES: O=C1C2=C(CCN(Cc3ccccc3)C2)N2CCN=C2N1Cc1ccc(C(F)(F)F)cc1 [I/1, reference compound]
- IC50 [1, 18]: 274 ± 15.9 nM
- IC50 [1, 19]: 185 ± 44.4 nM
- Panc-1 (pancreas, carcinoma) cell viability (% of control) ([2]; 3.7 nM): 105.8 ± 0.5 % of control
- Panc-1 (pancreas, carcinoma) cell viability (% of control) ([2]; 11.1 nM): 104.6 ± 7.2 % of control
- Panc-1 (pancreas, carcinoma) cell viability (% of control) ([2]; 100 nM): 81.8 ± 8.1 % of control
- Panc-1 (pancreas, carcinoma) cell viability (% of control) ([2]; 300 nM): 56.9 ± 2.4 % of control
- LNCaP cell viability ([3]; 3.7 nM): 98.6 ± 5.7 % of control
- LNCaP cell viability ([3]; 11.1 nM): 101.4 ± 3.3 % of control
- LNCaP cell viability ([3]; 100 nM): 28.1 ± 1.7 % of control
- LNCaP cell viability ([3]; 300 nM): 15.2 ± 1.7 % of control
- FaDu (pharynx, squamous cell carcinoma) cell viability (% of control) ([4]; 3.7 nM): 102.4 ± 7.4 % of control
- FaDu (pharynx, squamous cell carcinoma) cell viability (% of control) ([4]; 11.1 nM): 98.8 ± 4.7 % of control
- FaDu (pharynx, squamous cell carcinoma) cell viability (% of control) ([4]; 100 nM): 46.9 ± 5.6 % of control
- FaDu (pharynx, squamous cell carcinoma) cell viability (% of control) ([4]; 300 nM): 25.6 ± 5.3 % of control
- PC-3 (prostate, adenocarcinoma) cell viability (% of control) ([5]; 3.7 nM): 106.0 ± 2.8 % of control
- PC-3 (prostate, adenocarcinoma) cell viability (% of control) ([5]; 11.1 nM): 102.4 ± 3.7 % of control
- PC-3 (prostate, adenocarcinoma) cell viability (% of control) ([5]; 100 nM): 60.4 ± 5.2 % of control
- PC-3 (prostate, adenocarcinoma) cell viability (% of control) ([5]; 300 nM): 33.3 ± 3.3 % of control
- MDA-MB-453 (breast, carcinoma) cell viability (% of control) ([6]; 3.7 nM): 111.0 ± 7.3 % of control
- MDA-MB-453 (breast, carcinoma) cell viability (% of control) ([6]; 11.1 nM): 110.8 ± 2.3 % of control
- MDA-MB-453 (breast, carcinoma) cell viability (% of control) ([6]; 100 nM): 37.9 ± 1.3 % of control
- MDA-MB-453 (breast, carcinoma) cell viability (% of control) ([6]; 300 nM): 32.5 ± 0.5 % of control
- Detroit 562 (pharynx, carcinoma) cell viability (% of control) ([7]; 3.7 nM): 104.1 ± 4.8 % of control
- Detroit 562 (pharynx, carcinoma) cell viability (% of control) ([7]; 11.1 nM): 104.0 ± 17.2 % of control
- Detroit 562 (pharynx, carcinoma) cell viability (% of control) ([7]; 100 nM): 35.8 ± 14.4 % of control
- Detroit 562 (pharynx, carcinoma) cell viability (% of control) ([7]; 300 nM): 32.0 ± 5.0 % of control
- EBC-1 (lung, squamous cell carcinoma) cell viability (% of control) ([8]; 3.7 nM): 98.8 ± 5.8 % of control
- EBC-1 (lung, squamous cell carcinoma) cell viability (% of control) ([8]; 11.1 nM): 110.1 ± 11.9 % of control
- EBC-1 (lung, squamous cell carcinoma) cell viability (% of control) ([8]; 100 nM): 43.4 ± 6.8 % of control
- EBC-1 (lung, squamous cell carcinoma) cell viability (% of control) ([8]; 300 nM): 24.2 ± 2.1 % of control
- Capan-1 (pancreas, adenocarcinoma) cell viability (% of control) ([9]; 3.7 nM): 100.3 ± 4.0 % of control
- Capan-1 (pancreas, adenocarcinoma) cell viability (% of control) ([9]; 11.1 nM): 99.2 ± 3.8 % of control
- Capan-1 (pancreas, adenocarcinoma) cell viability (% of control) ([9]; 100 nM): 88.1 ± 4.2 % of control
- Capan-1 (pancreas, adenocarcinoma) cell viability (% of control) ([9]; 300 nM): 36.8 ± 3.4 % of control
- IC50 [10]: 32 nM
- IC50 [11]: 76 nM
- IC50 [12]: 105 nM
- IC50 [13]: 166 nM
- IC50 [14]: 90 nM
- IC50 [15]: 74 nM
- IC50 [16]: < 100 nM
- IC50 [17]: > 100 nM

SMILES: O=C1C2=C(CCN(Cc3cc(F)cc(F)c3)C2)N2CCN=C2N1Cc1ccc(Cl)cc1 [I/124, 4-(4-Chlorobenzyl)-7-(3,5-difluorobenzyl)-2,4,6,7,8,9-hexahydroimidazo[1,2-a]pyrido[3,4-e]pyrimidin-5(1H)-one]
- IC50 [1, 18]: 1.31 ± 0.286 nM
- IC50 [1, 19]: < 0.25 nM
- Panc-1 (pancreas, carcinoma) cell viability (% of control) ([2]; 3.7 nM): 99.7 ± 3.0 % of control
- Panc-1 (pancreas, carcinoma) cell viability (% of control) ([2]; 11.1 nM): 56.9 ± 0.2 % of control
- Panc-1 (pancreas, carcinoma) cell viability (% of control) ([2]; 100 nM): 50.9 ± 0.3 % of control
- Panc-1 (pancreas, carcinoma) cell viability (% of control) ([2]; 300 nM): 51.2 ± 0.4 % of control
- LNCaP cell viability ([3]; 3.7 nM): 20.8 ± 2.0 % of control
- LNCaP cell viability ([3]; 11.1 nM): 13.3 ± 1.6 % of control
- LNCaP cell viability ([3]; 100 nM): 12.7 ± 0.8 % of control
- LNCaP cell viability ([3]; 300 nM): 13.0 ± 0.7 % of control
- FaDu (pharynx, squamous cell carcinoma) cell viability (% of control) ([4]; 3.7 nM): 45.6 ± 20.7 % of control
- FaDu (pharynx, squamous cell carcinoma) cell viability (% of control) ([4]; 11.1 nM): 26.1 ± 6.2 % of control
- FaDu (pharynx, squamous cell carcinoma) cell viability (% of control) ([4]; 100 nM): 24.5 ± 4.6 % of control
- FaDu (pharynx, squamous cell carcinoma) cell viability (% of control) ([4]; 300 nM): 24.7 ± 5.0 % of control
- PC-3 (prostate, adenocarcinoma) cell viability (% of control) ([5]; 3.7 nM): 46.9 ± 4.2 % of control
- PC-3 (prostate, adenocarcinoma) cell viability (% of control) ([5]; 11.1 nM): 33.9 ± 3.3 % of control
- PC-3 (prostate, adenocarcinoma) cell viability (% of control) ([5]; 100 nM): 32.8 ± 3.2 % of control
- PC-3 (prostate, adenocarcinoma) cell viability (% of control) ([5]; 300 nM): 32.7 ± 14.4 % of control
- MDA-MB-453 (breast, carcinoma) cell viability (% of control) ([6]; 3.7 nM): 37.9 ± 3.2 % of control
- MDA-MB-453 (breast, carcinoma) cell viability (% of control) ([6]; 11.1 nM): 33.5 ± 1.8 % of control
- MDA-MB-453 (breast, carcinoma) cell viability (% of control) ([6]; 100 nM): 31.2 ± 2.2 % of control
- MDA-MB-453 (breast, carcinoma) cell viability (% of control) ([6]; 300 nM): 30.9 ± 1.4 % of control
- Detroit 562 (pharynx, carcinoma) cell viability (% of control) ([7]; 3.7 nM): 29.4 ± 4.9 % of control
- Detroit 562 (pharynx, carcinoma) cell viability (% of control) ([7]; 11.1 nM): 27.8 ± 3.6 % of control
- Detroit 562 (pharynx, carcinoma) cell viability (% of control) ([7]; 100 nM): 28.3 ± 3.6 % of control
- Detroit 562 (pharynx, carcinoma) cell viability (% of control) ([7]; 300 nM): 31.5 ± 3.7 % of control
- EBC-1 (lung, squamous cell carcinoma) cell viability (% of control) ([8]; 3.7 nM): 70.9 ± 8.3 % of control
- EBC-1 (lung, squamous cell carcinoma) cell viability (% of control) ([8]; 11.1 nM): 25.3 ± 0.7 % of control
- EBC-1 (lung, squamous cell carcinoma) cell viability (% of control) ([8]; 100 nM): 22.4 ± 0.5 % of control
- EBC-1 (lung, squamous cell carcinoma) cell viability (% of control) ([8]; 300 nM): 23.5 ± 1.3 % of control
- Capan-1 (pancreas, adenocarcinoma) cell viability (% of control) ([9]; 3.7 nM): 88.5 ± 1.8 % of control
- Capan-1 (pancreas, adenocarcinoma) cell viability (% of control) ([9]; 11.1 nM): 35.3 ± 3.1 % of control
- Capan-1 (pancreas, adenocarcinoma) cell viability (% of control) ([9]; 100 nM): 33.6 ± 1.1 % of control
- Capan-1 (pancreas, adenocarcinoma) cell viability (% of control) ([9]; 300 nM): 34.6 ± 2.4 % of control
- IC50 [10]: < 1 nM
- IC50 [11]: 3 nM
- IC50 [12]: 3 nM
- IC50 [13]: 4 nM
- IC50 [14]: 2 nM
- IC50 [15]: 2 nM

Source: patent publication US20230295162A1 (EÖTVÖS LORÁND TUDOMÁNYEGYETEM, priority 2020, published 2023)
